In assay [1] the target is T1, human recombinant HDAC6 (Homo sapiens, UniProt Q9UBN7).
T1 construct: purchased Calbiochem Inc. 382180
T1 sequence (Q9UBN7 1-1215): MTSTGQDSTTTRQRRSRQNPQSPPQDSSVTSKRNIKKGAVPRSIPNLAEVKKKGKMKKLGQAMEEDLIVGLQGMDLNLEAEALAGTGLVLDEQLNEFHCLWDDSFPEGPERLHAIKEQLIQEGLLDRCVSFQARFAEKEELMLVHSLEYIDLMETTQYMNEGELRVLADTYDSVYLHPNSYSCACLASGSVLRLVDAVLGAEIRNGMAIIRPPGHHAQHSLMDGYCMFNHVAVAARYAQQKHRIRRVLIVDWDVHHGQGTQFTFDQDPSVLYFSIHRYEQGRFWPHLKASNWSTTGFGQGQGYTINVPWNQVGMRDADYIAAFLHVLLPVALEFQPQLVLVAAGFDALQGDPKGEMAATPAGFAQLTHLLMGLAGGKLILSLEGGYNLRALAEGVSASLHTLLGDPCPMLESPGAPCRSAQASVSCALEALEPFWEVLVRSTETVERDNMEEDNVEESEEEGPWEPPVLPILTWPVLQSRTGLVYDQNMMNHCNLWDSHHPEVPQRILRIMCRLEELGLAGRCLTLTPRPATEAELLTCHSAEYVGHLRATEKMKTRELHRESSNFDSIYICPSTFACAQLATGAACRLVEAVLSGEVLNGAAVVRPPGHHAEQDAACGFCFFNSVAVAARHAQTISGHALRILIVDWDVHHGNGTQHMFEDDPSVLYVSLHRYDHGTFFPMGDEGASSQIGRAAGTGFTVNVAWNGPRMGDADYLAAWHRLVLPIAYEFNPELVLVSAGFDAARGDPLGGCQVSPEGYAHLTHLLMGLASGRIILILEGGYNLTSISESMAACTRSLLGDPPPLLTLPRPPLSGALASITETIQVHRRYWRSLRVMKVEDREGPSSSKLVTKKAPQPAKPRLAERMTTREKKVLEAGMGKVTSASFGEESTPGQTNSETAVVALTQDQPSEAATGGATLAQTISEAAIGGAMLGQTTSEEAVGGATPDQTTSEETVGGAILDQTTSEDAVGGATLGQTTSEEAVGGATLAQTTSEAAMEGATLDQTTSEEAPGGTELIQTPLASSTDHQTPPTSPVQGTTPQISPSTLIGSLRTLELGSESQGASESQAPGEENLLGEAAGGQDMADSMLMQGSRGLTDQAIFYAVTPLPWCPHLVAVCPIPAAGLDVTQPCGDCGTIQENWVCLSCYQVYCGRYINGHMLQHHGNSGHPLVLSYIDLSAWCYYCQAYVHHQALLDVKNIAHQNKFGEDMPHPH
Description: HDAC6 enzyme activity inhibition (HDAC Fluorimetric Drug Discovery Kit). Format: biochemical. As to conditions: for HDAC6 selectivity (fold): HDAC1 IC50 / HDAC6 IC50; for IC50: human recombinant HDAC6, IC50 calculated with GraphPad Prism. The gist of the method: (§1)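 Each isoform is run in the same format: compound dilutions (5-fold steps), 10 μM substrate, […] enzyme, one hour at 30° C, then 30 minutes with developer before fluorescence readout.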

Assay [2] deals with T2, human recombinant HDAC1 (Homo sapiens, UniProt Q13547).
T2 construct: purchased Enzo Life Science, Inc. BML-SE456
In words: HDAC1 enzyme activity inhibition (HDAC Fluorimetric Drug Discovery Kit). Format: biochemical. The following applies: human recombinant HDAC1; IC50 calculated with GraphPad Prism; read-out: HDAC1. The gist of the method: as §1

A value given as a limit tells only on which side of the number the result lay.

T2 sequence (Q13547 whole entry): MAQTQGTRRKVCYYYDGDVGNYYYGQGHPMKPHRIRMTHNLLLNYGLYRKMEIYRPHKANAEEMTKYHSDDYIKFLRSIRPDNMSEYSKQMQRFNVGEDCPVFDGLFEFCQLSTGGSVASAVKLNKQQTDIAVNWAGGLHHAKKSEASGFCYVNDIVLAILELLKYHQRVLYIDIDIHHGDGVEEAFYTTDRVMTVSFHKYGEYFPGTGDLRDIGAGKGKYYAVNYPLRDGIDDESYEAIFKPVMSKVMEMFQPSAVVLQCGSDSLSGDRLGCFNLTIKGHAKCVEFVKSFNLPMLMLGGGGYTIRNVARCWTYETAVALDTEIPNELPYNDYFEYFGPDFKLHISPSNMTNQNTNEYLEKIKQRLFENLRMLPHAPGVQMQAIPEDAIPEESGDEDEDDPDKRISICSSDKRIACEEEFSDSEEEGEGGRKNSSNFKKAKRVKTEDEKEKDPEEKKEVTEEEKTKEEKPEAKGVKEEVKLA

With `FC(F)c1nnc(-c2ccc(Cn3cc(-c4ccc(N5CCOCC5)cc4)nn3)nc2)o1` [Compound 4105, 4-(4-(1-((5-(5-(difluoromethyl)-1,3,4-oxadiazol-2-yl)pyridin-2-yl)methyl)-1H-1,2,3-triazol-4-yl)phenyl)morpholin], in assay [1], the “HDAC6 selectivity (fold)” value turned out to be 979 fold and the IC50 is 34.7 nM. In addition, the IC50 in assay [2] is 34000 nM.

On to `CN1CCN(c2ccccc2-c2cn(Cc3ccc(-c4nnc(C(F)F)o4)cn3)nn2)CC1` [Compound 4106, 2-(difluoromethyl)-5-(6-((4-(2-(4-methylpiperazin-1-yl)phenyl)-1H-1,2,3-triazol-1-yl)methyl)pyridin-3-yl)-1,3,4-oxadiazole], for which, in assay [1], the “HDAC6 selectivity (fold)” value came out at 877 fold and the IC50 is 57 nM. For the same compound, in assay [2], the IC50 was > 50000 nM.

`FC(F)c1nnc(-c2ccc(Cn3cc(-c4ccccc4)cn3)nc2)o1` [Compound 4133, 2-(difluoromethyl)-5-(6-((4-phenyl-1H-pyrazol-1-yl)methyl)pyridin-3-yl)-1,3,4-oxadiazole]: in assay [1], the “HDAC6 selectivity (fold)” value was determined as 444 fold. In addition, the IC50 in assay [1] was 113 nM; in assay [2] it was > 50000 nM.

Turning to `Fc1cccnc1-c1cn(Cc2ccc(-c3nnc(C(F)F)o3)cn2)nn1` [Compound 4178], the “HDAC6 selectivity (fold)” value in assay [1] is 896 fold. Moreover, the IC50 is 55.8 nM in assay [1] and > 50000 nM in assay [2].

As for `Fc1ccnc(-c2cn(Cc3ccc(-c4nnc(C(F)F)o4)cn3)nn2)c1` [Compound 4179, 2-(difluoromethyl)-5-(6-((4-(4-fluoropyridin-2-yl)-1H-1,2,3-triazol-1-yl)methyl)pyridin-3-yl)-1,3,4-oxadiazole], in assay [1], the “HDAC6 selectivity (fold)” value stood at 672 fold and the IC50 is 74.4 nM. In addition, the IC50 in assay [2] was > 50000 nM.

For `FC(F)c1nnc(-c2ccc(Cn3cc(-c4ccc(Br)cn4)nn3)nc2)o1` [Compound 4180, 2-(6-((4-(5-bromopyridin-2-yl)-1H-1,2,3-triazol-1-yl)methyl)pyridin-3-yl)-5-(difluoromethyl)-1,3,4-oxadiazole], in assay [1], the “HDAC6 selectivity (fold)” value is 1506 fold and the IC50 is 33.2 nM. Further, the IC50 in assay [2] was > 50000 nM.

For the compound `Cc1ccncc1-c1cn(Cc2ccc(-c3nnc(C(F)F)o3)cn2)nn1` [Compound 4181, 2-(difluoromethyl)-5-(6-((4-(4-methylpyridin-3-yl)-1H-1,2,3-triazol-1-yl)methyl)pyridin-3-yl)-1,3,4-oxadiazole], in assay [1], the “HDAC6 selectivity (fold)” value was determined as 1400 fold and the IC50 was 35.7 nM. In addition, the IC50 in assay [2] is > 50000 nM.

In the case of `FC(F)c1nnc(-c2ccc(Cn3cc(-c4ccc(Br)nc4)nn3)nc2)o1` [Compound 4183, 2-(6-((4-(6-bromopyridin-3-yl)-1H-1,2,3-triazol-1-yl)methyl)pyridin-3-yl)-5-(difluoromethyl)-1,3,4-oxadiazole], in assay [1], the “HDAC6 selectivity (fold)” value stood at 896 fold and the IC50 was 55.8 nM. Also, the IC50 in assay [2] is > 50000 nM.

For `Fc1cnccc1-c1cn(Cc2ccc(-c3nnc(C(F)F)o3)cn2)nn1` [Compound 4184, 2-(difluoromethyl)-5-(6-((4-(3-fluoropyridin-4-yl)-1H-1,2,3-triazol-1-yl)methyl)pyridin-3-yl)-1,3,4-oxadiazole], in assay [1], the “HDAC6 selectivity (fold)” value turned out to be 1291 fold and the IC50 is 38.7 nM. In addition, the IC50 in assay [2] was > 50000 nM.

With `FC(F)c1nnc(-c2ccc(Cn3cc(-c4ccc5[nH]cc(CN6CCOCC6)c5c4)nn3)cc2)o1` [Compound 4186, 4-((5-(1-(4-(5-(difluoromethyl)-1,3,4-oxadiazol-2-yl)benzyl)-1H-1,2,3-triazol-4-yl)-1H-indol-3-yl)methyl)morpholine], the “HDAC6 selectivity (fold)” value in assay [1] came to 4464 fold. Further, the IC50 in assay [1] is 11.2 nM; in assay [2], > 50000 nM.

In the case of `CN1CCc2ccc(-c3cn(Cc4ccc(-c5nnc(C(F)F)o5)cn4)nn3)cc2C1` [Compound 4209, 2-(difluoromethyl)-5-(6-((4-(2-methyl-1,2,3,4-tetrahydroisoquinolin-7-yl)-1H-1,2,3-triazol-1-yl)methyl)pyridin-3-yl)-1,3,4-oxadiazole], in assay [1], the “HDAC6 selectivity (fold)” value is reported as 1298 fold and the IC50 was 38.5 nM. The IC50 in assay [2] was > 50000 nM.

With `CCN1CCc2ccc(-c3cn(Cc4ccc(-c5nnc(C(F)F)o5)cn4)nn3)cc2C1` [Compound 4211, 2-(difluoromethyl)-5-(6-((4-(2-ethyl-1,2,3,4-tetrahydroisoquinolin-7-yl)-1H-1,2,3-triazol-1-yl)methyl)pyridin-3-yl)-1,3,4-oxadiazole], in assay [1], the “HDAC6 selectivity (fold)” value was 1039 fold and the IC50 was 48.1 nM. Also, the IC50 in assay [2] is > 50000 nM.

For the compound `FC(F)c1nnc(-c2ccc(Cn3cc(-c4ccc5c(c4)CN(C4CCC4)CC5)nn3)nc2)o1` [Compound 4212, 2-(6-((4-(2-cyclobutyl-1,2,3,4-tetrahydroisoquinolin-7-yl)-1H-1,2,3-triazol-1-yl)methyl)pyridin-3-yl)-5-(difluoromethyl)-1,3,4-oxadiazole], in assay [1], the “HDAC6 selectivity (fold)” value is reported as 1602 fold and the IC50 was 31.2 nM. Moreover, the IC50 in assay [2] was > 50000 nM.

As to `FC(F)c1nnc(-c2ccc(Cn3cc(-c4ccc5c(c4)CN(C4COC4)CC5)nn3)nc2)o1` [Compound 4213, 2-(difluoromethyl)-5-(6-((4-(2-(oxetan-3-yl)-1,2,3,4-tetrahydroisoquinolin-7-yl)-1H-1,2,3-triazol-1-yl)methyl)pyridin-3-yl)-1,3,4-oxadiazole], the “HDAC6 selectivity (fold)” value in assay [1] is 1730 fold. For the same compound, the IC50 in assay [1] was 28.9 nM; in assay [2] it was > 50000 nM.

In the case of `CN(C)CCC(=O)Nc1cccc(-c2cn(Cc3ccc(-c4nnc(C(F)F)o4)cn3)nn2)c1` [Compound 4229, N-(3-(1-((5-(5-(difluoromethyl)-1,3,4-oxadiazol-2-yl)pyridin-2-yl)methyl)-1H-1,2,3-triazol-4-yl)phenyl)-3-(dimethylamino)propanamide], in assay [1], the “HDAC6 selectivity (fold)” value worked out at 1742 fold and the IC50 was 28.7 nM. In addition, the IC50 in assay [2] was > 50000 nM.

As for `CN(C)CC(=O)Nc1cccc(-c2cn(Cc3ccc(-c4nnc(C(F)F)o4)cn3)nn2)c1` [Compound 4230, N-(3-(1-((5-(5-(difluoromethyl)-1,3,4-oxadiazol-2-yl)pyridin-2-yl)methyl)-1H-1,2,3-triazol-4-yl)phenyl)-2-(dimethylamino)acetamide], in assay [1], the “HDAC6 selectivity (fold)” value is 2173 fold and the IC50 was 23 nM. Also, the IC50 in assay [2] is > 50000 nM.

For the compound `CN(C)C(C)(C)C(=O)Nc1cccc(-c2cn(Cc3ccc(-c4nnc(C(F)F)o4)cn3)nn2)c1` [Compound 4231, N-(3-(1-((5-(5-(difluoromethyl)-1,3,4-oxadiazol-2-yl)pyridin-2-yl)methyl)-1H-1,2,3-triazol-4-yl)phenyl)-2-(dimethylamino)-2-methylpropanamide], the “HDAC6 selectivity (fold)” value in assay [1] was found to be 914 fold. Further, the IC50 is 54.7 nM in assay [1] and > 50000 nM in assay [2].

`FC(F)(F)c1nnc(-c2ccc(Cn3nnc(-c4cccs4)n3)nc2)o1` [Compound 4233]: the “HDAC6 selectivity (fold)” value in assay [1] was found to be 3846 fold. The IC50 is 13 nM in assay [1] and > 50000 nM in assay [2].

Consider `FC(F)(F)c1nnc(-c2ccc(Cn3nnc(-c4ccccc4)n3)nc2)o1` [Compound 4235], for which, in assay [1], the “HDAC6 selectivity (fold)” value is 290 fold and the IC50 is 172 nM. Further, in assay [2], the IC50 was > 50000 nM.
